Consider one compound from paper PMC7235042, “Venturicidin A, A Membrane-active Natural Product Inhibitor of ATP synthase Potentiates Aminoglycoside Antibiotics” (Scientific Reports, 2020).

This experiment has as its target T1, AAC(6′)-Ie-APH(2′′)-Ia (Staphylococcus aureus, UniProt P0A0C1).
T1 construct: gene aacA-aphD; purified bifunctional enzyme (AAC and APH domains)
As to the kind of experiment: absorbance at […] nm, DTNB detection of released CoA-SH. The note with it: AAC activity; co-substrate gentamicin 112 µg/mL. It is filed as biochemical.

T1 sequence (P0A0C1 whole entry, the tested form may be a part): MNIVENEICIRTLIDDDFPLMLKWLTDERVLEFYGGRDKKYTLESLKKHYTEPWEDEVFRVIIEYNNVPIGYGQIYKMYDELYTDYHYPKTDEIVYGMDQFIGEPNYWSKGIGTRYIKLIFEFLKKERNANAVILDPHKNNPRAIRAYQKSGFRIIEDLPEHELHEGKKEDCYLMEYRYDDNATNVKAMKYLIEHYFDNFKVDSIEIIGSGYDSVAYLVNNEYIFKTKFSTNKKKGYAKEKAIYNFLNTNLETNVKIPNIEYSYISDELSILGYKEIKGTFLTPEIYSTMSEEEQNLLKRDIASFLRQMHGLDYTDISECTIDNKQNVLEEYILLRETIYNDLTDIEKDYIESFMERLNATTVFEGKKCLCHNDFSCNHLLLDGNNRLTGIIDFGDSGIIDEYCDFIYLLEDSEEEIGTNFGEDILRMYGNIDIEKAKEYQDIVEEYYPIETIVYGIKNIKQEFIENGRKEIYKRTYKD

As to `CC(=O)SCCNC(=O)CCNC(=O)[C@H](O)C(C)(C)COP(=O)(O)OP(=O)(O)OC[C@H]1O[C@@H](n2cnc3c(N)ncnc32)[C@H](O)[C@@H]1OP(=O)(O)O` [acetyl CoA], the “absorbance at 412 nm, DTNB detection of released CoA-SH” value is “CoA–SH that is derived from acetyl CoA after antibiotic acetylation”.
